Experimental data reported in EPA's ToxValDB 9.5 (doi:10.2903/j.efsa.2009.262r).
Converted amounts (≈) assume the structure as drawn.

Key:
Apis mellifera = settings: acute, mortality
Bibionidae = settings: chronic/long-term; duration: 28 days
Daphnia magna = settings: chronic/long-term; duration: 21 days
Oryctolagus sp. = settings: reproduction developmental; reproduction
Rattus norvegicus = settings: for NOAEL: clinical chemistry
Aphidius rhopalosiphi = assay: LR50; higher = less toxic; settings: not reported; mortality
Typhlodromus pyri = assay: LR50; higher = less toxic; settings: not reported; mortality

## CCOP(=O)(SC(C)CC)SC(C)CC (configuration not stated) [Cadusafos]
Apis mellifera; dermal
  LD50: 1.8 µg/piece
Apis mellifera; oral, unspecified
  LD50: 2.07 µg/piece
Bibionidae
  NOEC: 32 µg/kg
Colinus virginianus; acute, oral, diet, mortality
  LC50: 10.8 mg/kg-day
Colinus virginianus; acute, oral, mortality
  LD50: 16.1 mg/kg-day
Colinus virginianus; reproduction developmental
  NOEL: ≥ 1.1 mg/kg-day
Daphnia magna
  NOEC: 0.231 µg/L
Oncorhynchus mykiss; acute, duration: 96 hours, mortality
  LC50: 0.13 µg/mL (≈ 0.481 µM)
Oncorhynchus mykiss; chronic/long-term, duration: 95 days
  NOEC: 5.22 µg/L
Oryctolagus sp.
  NOAEL: 0.3 mg/kg-day
Rattus norvegicus; acute, oral, mortality
  LD50: 37.1 mg/kg
Rattus norvegicus; chronic, duration: 2 years, F
  NOAEL: 0.045 mg/kg-day
Rattus norvegicus; subchronic, duration: 90 days, oral
  NOAEL: 0.067 mg/kg-day
Tagia sp.; acute, mortality
  LC50: 7.2 mg/kg
Tagia sp.; chronic/long-term
  NOEC: 1.8 mg/kg
Aphidius rhopalosiphi
  LR50: 3.75 g/ha
Typhlodromus pyri
  LR50: 44.4 g/ha
